In PubChem BioAssay AID2384 (Southern Research Specialized Biocontainment Screening …, 2010) one finds IC50 data, which are given here for 35 molecules.

pIC50: −log10 of the molar value. Several values for one entry are separate records, joined by “and”; a condition that tells them apart may be missing. Identical values can stand only once.

The subject of this assay is S. typhi GFP reporter counter-screen, fluorescence, 4 h. Briefly: inhibitors in S. typhi counter-screen strain, dose response, counter-screen for PhoP regulon inhibitor project, fluorescence, 4 h (AID 2384). A general note: The purpose of a counterscreen is to sort out artefacts and off-target activity.

For orientation: pIC50 means −log10 of the IC50, conventionally taken in molar units. Consider `CSc1nc2ccc(Cl)cc2[nH]1`, for which the pIC50 was 4.13.
With `CC(NCC(O)COc1ccc2ccccc2c1)c1ccccc1` (stereo not given) the figure was 4.23; with `O/N=C/C1=C(Cl)c2ccccc2CC1`, 4.03; with `CO[C@H]1C=CO[C@@]2(C)Oc3c(C)c(O)c4c(O)c(c5c(c4c3C2=O)NC2(CCN(CC(C)C)CC2)N=5)=NC(=O)C(C)=CC=C[C@H](C)[C@H](O)[C@@H](C)[C@@H](O)[C@@H](C)[C@H](OC(C)=O)[C@@H]1C`, 5.66.
In the case of `CC(C)(c1ccccc1)c1ccc(OCCCN2CCNCC2)cc1` it was 4.40; in that of `Cc1cc(N=Nc2ccccc2)c(NCC(O)C(O)C(O)CO)cc1C` (stereo not given), 3.84; in that of `Clc1ccc(C(c2ccc(Cl)cc2)n2cc[n+](CC(OCc3ccc(Cl)cc3Cl)c3ccc(Cl)cc3Cl)c2)cc1` (stereo not given), 5.01.
With `O/N=C/c1ccc(OCc2ccccc2)c(Cl)c1` the figure was 3.99; with `Nc1nonc1-n1nnc(C(=O)N/N=C/c2ccccc2O)c1CN1CCCC1`, 3.95; with `CN(C)CCCNc1cc(C(C)(C)C)nc2c(-c3ccc(Cl)cc3)cnn12`, 4.73.
In the case of `c1cnc2c(c1)ccc1cccnc12`, the pIC50 is 4.46 and 4.51.
Take `O=C(Oc1c(Br)cc([N+](=O)[O-])cc1Br)c1cccnc1`: the pIC50 was 4.55.
In the case of `O=C(NCCCN1CCOCC1)c1sc2cc(Cl)ccc2c1Cl` it was 4.09; in that of `O=C(C[n+]1ccc(-c2ccccc2)cc1)Nc1ccc([N+](=O)[O-])cc1`, 4.58.
Take `Cc1ccc(-c2csc(NC(=O)C[n+]3cc(-c4ccccc4)n4c3CCC4)n2)cc1`: the pIC50 was 4.71.
In the case of `C#CCOCCOCCOCCNc1nc(N2CCN(C(=O)CCCCCCCCCCNC(=O)[C@H](CCCCN)n3cc(C)nn3)CC2)nc(N2CCN(C(=O)CCCCCCCCCCNC(=O)[C@H](CCCN=C(N)N)n3cc(C[C@@H](C)CC)nn3)CC2)n1` it was 4.68; in that of `Nc1nc(Nc2cccc(F)c2)nc2ccccc12`, 4.65; in that of `Oc1c(CN2CCN(c3ccccn3)CC2)cc(Cl)c2cccnc12`, 4.75.
In the case of `CC(C)N1CSC(=S)N(Cc2ccccc2)C1` it was 4.31; in that of `CCN1/C(=C/C(C)=C/c2sc3ccccc3[n+]2CC)Sc2ccccc21`, 5.51.
In the case of `O=C(C[n+]1cc(-c2ccccc2)n2c1CCC2)Nc1nc(-c2ccc(F)cc2)cs1` it was 4.43; in that of `O=C(Nc1nc(-c2ccccn2)cs1)c1ccc(Br)s1`, 4.84.
On to `Cc1cc(NS(=O)(=O)c2ccc(NC(=O)Nc3cccc(Cl)c3)cc2)no1`, for which the pIC50 is 3.92.
Take `C#CCOCCOCCOCCNc1nc(N2CCN(C(=O)C(Cc3ccc(O)cc3)n3cc(C(N)CC(C)C)nn3)CC2)nc(N2CCN(C(=O)C(Cc3cc4ccccc4[nH]3)n3cc(C(N)Cc4ccc(O)cc4)nn3)CC2)n1` (stereo not given): the negative-log IC50 (pIC50) was 4.42.
With `N=c1c2c(n(Cc3ccc(Cl)c(Cl)c3)c3c1CCC3)CCCC2` the figure was 4.51; with `Cc1[nH]cnc1C(=O)N/N=C/c1ccc([N+](=O)[O-])s1`, 4.43; with `C#CCOCCOCCOCCNc1nc(N2CCN(C(=O)CCCCCCCCCCNC(=O)[C@H](CCCCN)n3cc(C[C@@H](C)CC)nn3)CC2)nc(N2CCN(C(=O)CCCCCCCCCCNC(=O)[C@H](CCCN=C(N)N)n3cc(C[C@@H](C)CC)nn3)CC2)n1`, 3.99.
With `CC(C)Oc1ccc(Cc2cnc(N)nc2N)cc1` the figure was 4.48; with `Fc1ccc(CCNCc2ccccc2Cl)cc1`, 4.08.
With `CN1CCN(C2Cc3cc(Cl)ccc3Sc3cc(F)ccc32)CC1` (stereo not given) the figure was 4.65; with `CNC[C@H](CC1CCCCC1)NC[C@H](Cc1ccccc1)NCCC12CC3CC(CC(C3)C1)C2`, 4.98.
In the case of `OCCNCc1cc(Br)ccc1OCc1ccc(Cl)cc1`, the negative-log IC50 (pIC50) was 4.46.
Take `CCNC(=O)Oc1ccc[nH]c1=O`: the pIC50 was 4.27.
With `CCn1cc(C(=O)O)c(=O)c2cc(F)c(N3CCN(C(=S)Nc4ccccc4OC)CC3)cc21` the figure was 4.39.
As for `Cc1cc(C)c(NC(=O)C[N+](C)(C)CC(O)COc2cccc3ccccc23)c(C)c1` (stereo not given), the negative-log IC50 (pIC50) was 4.20.
